Results reported in EP0409227A2, “Pyrimidine nucleosides, their preparation and pharmaceutical preparations” (MATTHES, Eckart, Dr., priority 1989, dated 1991).

Columns and labels:
MT4 Zellen = experiment: Cytotoxicity: inhibition of proliferation of MT4 cells; type: cell-based
Procedure: (§1) Unter dem Aspekt einer möglichen Anwendung der Verbindungen am Menschen wurden ihre antiproliferativen Wirkungen an menschlichen Zellkulturen wie früher beschrieben getestet (E. Matthes et al. Biochem.Biophys.Res.Commun. 153, 825 (1988)). Dabei zeigte sich, daß z.B. 2′,3′-Didesoxy-3-fluor-5-methylcytidin gegenüber der T-Zellinie MT4 eine CD₅₀ von 190 µM aufweist. In einem weiteren Test, in dem eine mögliche Wachstumshemmung koloniebildender Zellen des Knochenmarks der Maus (CFU-GM) untersucht wurde (E. Matthes et al. Biochem.Biophys.Res.Commun. 165, 488 (1989), erwies sich diese Verbindung ebenfalls als kaum proliferationshemmend (CD₅₀ > 500 µM). Die Wirkung weiterer Verbindungen auf die Proliferation von MT4-Zellen ist in Tabelle 3 zusammengefaßt. Tabelle 3

[1] = tested on: HBsAg-Sekretion von Hep G2 (2.2.15)-Zellen; experiment: Inhibition of HBsAg secretion of Hep G2 (2.2.15) cells (solid-phase radioimmunoassay of the medium); type: cell-based, HBV
Procedure: (§2) Die Testung der antiviralen Wirksamkeit der Nucleoside auf zelluärer Ebene erfolgte an einer menschlichen Hepatoblastom-Zellinie, die mit dem HBV-Genom tranfiziert wurde und sowohl das Oberflächenantigen des Virus (HBsAg) als auch die HBV-DNA permanent produziert und infektiöse Viruspartikel in das Medium abgibt (Hep G2-Zellen, Klon 2.2.15, Sells et al. Proc.Natl.Acad. Sci. 84, 1005 (1987)). Die Zellen (5x10⁵/ml) wurden in RPMI 1640-Medium mit 2 mM Glutamin und 10% fetalem Kälberserum allein oder zusammen mit den Nucleosid-Analoga für 4 Tage inkubiert, danach wurden den Ansätzen für 24 Stunden ³H-Thymidin bzw. ³H-Desoxyadenosin (3 µCi/ml) zugesetzt, die Zellen abzentrifugiert und darin die säureunlösliche Radioaktivität und damit der Einfluß auf die DNA-Synthese bestimmt. Im Inkubationsmedium wurde das HBsAg durch Festphasenradioimmunoassay (Travenol-Genentech Diagnostics, Cambridge, MA) entsprechend den Instruktionen des Herstellers ermittelt. Die Tabelle 4 faßt die Ergebnisse zusammen, die belegen, daß die getesteten Verbindungen hochwirksame und selektive Hemmstoffe der HBV-Vermehrung sind.

Hep G2 (2.2.15)-Zellen = experiment: DNA synthesis of Hep G2 (2.2.15) cells (acid-insoluble radioactivity after 3H-thymidine or 3H-deoxyadenosine); type: cell-based, menschlichen; conditions: 4 days, then 24 h label, mean ± SD of five experiments
Procedure: as §2

HBV-Polymerase = molecular target: T1, HBV-Polymerase (Hepatitis B virus genotype D subtype ayw, UniProt P03156); experiment: Inhibition of HBV polymerase activity by nucleoside triphosphate analogues (method of Kaplan et al.); type: biochemical; conditions: 50 % inhibition of HBV polymerase activity; 3 h incubation at 37 °C; read-out: ID₅₀
T1 construct: Es wurde zunächst die Hemmbarkeit der HBV-assoziierten Polymerase; host or cells: virus-associated endogenous polymerase
Description: Das Hepatitis B Virus (HBV) besitzt eine zirkuläre, partiell doppelsträngige DNA, welche nach Infektion einer Leberzelle durch eine viruseigene Polymerase repliziert wird. Dieser Vorgang setzt jedoch die Synthese einer RNA durch eine zelluläre RNA-Polymerase voraus. Nur diese RNA-Matrize - im Zusammenhang mit der Replikation auch als Prägenom bezeichnet - kann von der HBV-Polymerase für die Synthese zunächst eines RNA-DNA Hybrids und dann der doppelsträngigen DNA benutzt werden. Damit verfügt die HBV-Polymerase über eine enzymatische Aktivität, die der einer reversen Transcriptase ähnelt (Will et al., J.Virology 61, 904 (1987)). Es wurde zunächst die Hemmbarkeit der HBV-assoziierten Polymerase durch die 5′-Triphosphate der erfindungsgemäßen Verbindungen untersucht. Dazu wurde die von Kaplan et al. (J.Virology 12, 995 (1973)) angegebene Methode zur Bestimmung der HBV-Polymerase benutzt, wobei die zu testenden Triphosphate den Ansätzen in verschiedenen Konzentrationen zugesetzt wurden. Die Hemmung der Enzymreaktion wurde nach 3-stündiger Inkubation bei 37 °C durch Vergleich mit einem Kontrollwert ermittelt und daraus die Konzentration der zugesetzten Analoga bestimmt, die zu einer 50 %igen Hemmung der HBV-Polymerase-Aktivität führt (ID₅₀). Tabelle 1 zeigt die Ergebnisse, wobei insbesondere 2′,3′-Didesoxy-3′-fluor-5-methylcytidin durch einen Wert ID₅₀ von 0,03 µM herausragt und damit zu den stärksten bisher bekannten Hemmstoffen der HBV-Polymerase zu rechnen ist. Tabelle 1

[2] = tested on: koloniebildender Zellen des Knochenmarks der Maus (CFU-GM); experiment: Growth inhibition of colony-forming bone marrow cells (CFU-GM); type: cell-based; conditions: mouse bone marrow
Procedure: as §1

[3] = nucleoside 0,01 µM, 4 days + 24 h, mean ± SD of five experiments
[4] = nucleoside 0,1 µM, 4 days + 24 h, mean ± SD of five experiments
[5] = nucleoside 0,01 µM, % of control without nucleoside (100)
[6] = nucleoside 0,1 µM, % of control without nucleoside (100)
[7] = nucleoside 0,03 µM, 4 days + 24 h, mean ± SD of five experiments
[8] = nucleoside 0,3 µM, 4 days + 24 h, mean ± SD of five experiments
[9] = nucleoside 0,03 µM, % of control without nucleoside (100)
[10] = nucleoside 0,3 µM, % of control without nucleoside (100)
[11] = nucleoside 0,003 µM, 4 days + 24 h, mean ± SD of five experiments
[12] = nucleoside 0,003 µM, % of control without nucleoside (100)
[13] = nucleoside 1,0 µM, 4 days + 24 h, mean ± SD of five experiments
[14] = nucleoside 1,0 µM, % of control without nucleoside (100)
[15] = nucleoside 3,0 µM, 4 days + 24 h, mean ± SD of five experiments
[16] = nucleoside 3,0 µM, % of control without nucleoside (100)
[17] = MT4 cells, 50 % inhibition of cell multiplication after 48 h

T1 sequence (P03156 whole entry): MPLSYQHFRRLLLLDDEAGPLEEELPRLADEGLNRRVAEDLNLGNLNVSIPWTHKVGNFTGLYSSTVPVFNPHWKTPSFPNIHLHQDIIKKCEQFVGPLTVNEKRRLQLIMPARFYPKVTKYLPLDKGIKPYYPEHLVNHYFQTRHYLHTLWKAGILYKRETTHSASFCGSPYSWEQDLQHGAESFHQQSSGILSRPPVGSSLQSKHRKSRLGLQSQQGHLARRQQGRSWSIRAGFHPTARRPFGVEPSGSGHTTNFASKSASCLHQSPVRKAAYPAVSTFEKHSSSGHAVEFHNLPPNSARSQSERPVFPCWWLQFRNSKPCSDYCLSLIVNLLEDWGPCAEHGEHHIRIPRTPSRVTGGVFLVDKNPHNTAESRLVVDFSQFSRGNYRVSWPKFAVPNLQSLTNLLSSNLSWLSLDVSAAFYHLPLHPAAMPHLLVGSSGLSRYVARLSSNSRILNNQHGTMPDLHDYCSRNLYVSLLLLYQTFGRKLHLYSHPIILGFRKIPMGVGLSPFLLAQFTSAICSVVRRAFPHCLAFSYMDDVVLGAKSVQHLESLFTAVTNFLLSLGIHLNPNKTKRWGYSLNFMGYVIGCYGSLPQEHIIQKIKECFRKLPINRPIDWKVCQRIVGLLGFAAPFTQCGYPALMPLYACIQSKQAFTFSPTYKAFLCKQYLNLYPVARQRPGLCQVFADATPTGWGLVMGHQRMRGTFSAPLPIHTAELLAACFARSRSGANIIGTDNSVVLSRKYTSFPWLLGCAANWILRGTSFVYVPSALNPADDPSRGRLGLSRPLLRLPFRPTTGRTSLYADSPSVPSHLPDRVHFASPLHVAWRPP

Row | Structure (SMILES) | HBsAg [1, 3] | HBsAg [1, 4] | HBsAg [1, 5] [%] | HBsAg [1, 6] [%] | HBsAg [1, 7] | HBsAg [1, 8] | HBsAg [1, 9] [%] | HBsAg [1, 10] [%] | HBsAg [1, 11] | HBsAg [1, 12] [%] | HBsAg [1, 13] | HBsAg [1, 14] [%] | HBsAg [1, 15] | HBsAg [1, 16] [%] | ^3H-DNA (Hep G2 (2.2.15)-Zellen; nucleoside 0,01 µM) [dpm/Kultur] | ^3H-DNA (Hep G2 (2.2.15)-Zellen; nucleoside 0,1 µM) [dpm/Kultur] | ^3H-DNA (Hep G2 (2.2.15)-Zellen; nucleoside 0,03 µM) [dpm/Kultur] | ^3H-DNA (Hep G2 (2.2.15)-Zellen; nucleoside 0,3 µM) [dpm/Kultur] | ^3H-DNA (Hep G2 (2.2.15)-Zellen; nucleoside 0,003 µM) [dpm/Kultur] | ^3H-DNA (Hep G2 (2.2.15)-Zellen; nucleoside 1,0 µM) [dpm/Kultur] | also measured
1 | Nc1ncnc2c1ncn2[C@H]1C=C[C@@H](CO)O1 [2′,3′-Didehydro-2′,3′-didesoxyadenosin, 9-(2,3-Didesoxy-β-D-glycero-pent-2-enofuranosyl)adenin] | 12,4 ± 1,8 ng/ml | 0,5 ± 0,2 ng/ml | 71 | 3 | 4,7 ± 0,6 ng/ml | < 0,1 ng/ml | 27 | < 1 | 16,9 ± 2,6 ng/ml | 96 | < 0,1 ng/ml | < 1 | < 0,1 ng/ml | < 1 | 17215 ± 1760 | 16230 ± 1745 | 18975 ± 1957 | 19400 ± 1926 | 19650 ± 1935 | 9930 ± 1130 | CD₅₀ (MT4 Zellen; human, 48 h): 48 µM; ^3H-DNA (Hep G2 (2.2.15)-Zellen; nucleoside 3,0 µM): 4265 ± 555 dpm/Kultur
2 | Cc1cn([C@H]2C[C@H](N)[C@@H](CO)O2)c(=O)nc1N [2′,3′-Didesoxy-3′-amino-5-methylcytidin] | 8,5 ± 1,3 ng/ml | 4,8 ± 0,6 ng/ml | 44 | 25 | 7,0 ± 1,1 ng/ml | 3,2 ± 0,4 ng/ml | 36 | 17 | 13,9 ± 2,9 ng/ml | 72 | 0,3 ± 0,1 ng/ml | 2 | < 0,1 ng/ml | < 1 | 15445 ± 1830 | 14350 ± 1570 | 14180 ± 1650 | 12160 ± 1860 | 16020 ± 1790 | 8150 ± 1125 | CD₅₀ (MT4 Zellen; human, 48 h): 1,2 µM; ^3H-DNA (Hep G2 (2.2.15)-Zellen; nucleoside 3,0 µM): 2100 ± 430 dpm/Kultur
3 | Cc1cn([C@H]2C[C@H](F)[C@@H](CO)O2)c(=O)nc1N [2′,3′-Didesoxy-3′-fluor-5-methylcytidin] | 7,0 ± 0,9 ng/ml | 0,4 ± 0,1 ng/ml | 36 | 2 | 2,4 ± 0,3 ng/ml | < 0,1 ng/ml | 12 | < 1 | 14,3 ± 2,4 ng/ml | 74 | < 0,1 ng/ml | < 1 | < 0,1 ng/ml | < 1 | 15060 ± 1895 | 14350 ± 1520 | 15580 ± 1910 | 13175 ± 1975 | 13270 ± 1650 | 8295 ± 1010 | IC50 (HBV-Polymerase): 30 nM; CD₅₀ (MT4 Zellen; [17]): 190 µM; CD₅₀ [2]: > 500 µM; ^3H-DNA (Hep G2 (2.2.15)-Zellen; nucleoside 3,0 µM): 2470 ± 295 dpm/Kultur
4 | Cc1cn([C@H]2C[C@H](Cl)[C@@H](CO)O2)c(=O)nc1N [2′,3′-Didesoxy-3′chlor-5-methylcytidin, 3′-Chlor-2′,3′-didesoxy-5-methylcytidin] | 9,6 ± 1,2 ng/ml | 3,4 ± 0,4 ng/ml | 50 | 18 | 7,1 ± 0,8 ng/ml | 3,2 ± 0,5 ng/ml | 37 | 17 | 18,5 ± 2,6 ng/ml | 96 | 0,4 ± 0,1 ng/ml | 2 | < 0,1 ng/ml | < 1 | 14820 ± 1550 | 15185 ± 1735 | 14370 ± 1620 | 13895 ± 1540 | 13450 ± 1465 | 12270 ± 1590 | CD₅₀ (MT4 Zellen; [17]): 625 µM; ^3H-DNA (Hep G2 (2.2.15)-Zellen; nucleoside 3,0 µM): 10065 ± 1855 dpm/Kultur
